# Measured values taken from patent US20080318945A1, “Novel Compounds” (priority 2005, published 2008).
# Key:
# [1] = molecular target: T1, TRPV4 channel receptors (Bos taurus, UniProt A0A8F4X677); assay: Ca2+ influx by Fura-2 fluorescence on FlexStation in bovine articular chondrocytes; type: cell-based
# T1 construct: obtained using this method in bovine articular chondrocytes; endogenous in cells; host or cells: bovine articular chondrocytes
# Description: Ca^2+ influx mediated through TRPV4 channel receptors can be measured using articular chondrocytes from such species as, but not limited to, human, rat, canine, rabbit, monkey, and bovine, using standard techniques in the art such as, but not limited to, Fura-2 (Invitrogen/Molecular Probes, Eugene, Oreg.) fluorescence using a FlexStation (manufactured by Molecular Devices, Sunnyvale, Calif.). Table 1 lists biological data for several representative compounds obtained using this method in bovine articular chondrocytes.
# (§1) All exemplary compounds of the present invention were assessed using at least one of the biological assays presented above. Compounds presented in the Examples had EC50 values of about 0.0001 μM to 1 μM as measured by Flex Station using bovine articular chondrocytes and pEC50 values between about 6.0 to 9.1 as measured by FLIPR assay using TRPV4 expressing HEK cells.
# [2] = molecular target: T2, TRPV4 channel receptor (Homo sapiens, UniProt Q9HBA0); assay: FLIPR assay using TRPV4 expressing HEK cells; type: cell-based; settings: FLIPR method; read-out: pEC50 values (converted)
# T2 construct: expressed in transfected cells; host or cells: HEK cells
# Description: Other techniques used to measure TRPV4 channel receptor activation in chondrocytes include, but are not limited to: FLIPR assay, measuring a compound's capability to reduce the amount of ADAMTSs produced and/or released in response to a catabolic stimulus by a cell comprising a TRPV4 channel receptor; measuring a compound's capability to reduce the amount of MMPs produced and/or released in response to a catabolic stimulus by a cell comprising a TRPV4 channel receptor; measuring a compound's capability to effect the amount of nitric oxide (NO) produced in response to a catabolic stimulus by a cell comprising a TRPV4 channel receptor; and measuring a compound's capability to attenuate the inhibition of matrix synthesis in response to a catabolic stimulus by a cell comprising a TRPV4 channel receptor.
# as §1
# T1 sequence (A0A8F4X677 1-871): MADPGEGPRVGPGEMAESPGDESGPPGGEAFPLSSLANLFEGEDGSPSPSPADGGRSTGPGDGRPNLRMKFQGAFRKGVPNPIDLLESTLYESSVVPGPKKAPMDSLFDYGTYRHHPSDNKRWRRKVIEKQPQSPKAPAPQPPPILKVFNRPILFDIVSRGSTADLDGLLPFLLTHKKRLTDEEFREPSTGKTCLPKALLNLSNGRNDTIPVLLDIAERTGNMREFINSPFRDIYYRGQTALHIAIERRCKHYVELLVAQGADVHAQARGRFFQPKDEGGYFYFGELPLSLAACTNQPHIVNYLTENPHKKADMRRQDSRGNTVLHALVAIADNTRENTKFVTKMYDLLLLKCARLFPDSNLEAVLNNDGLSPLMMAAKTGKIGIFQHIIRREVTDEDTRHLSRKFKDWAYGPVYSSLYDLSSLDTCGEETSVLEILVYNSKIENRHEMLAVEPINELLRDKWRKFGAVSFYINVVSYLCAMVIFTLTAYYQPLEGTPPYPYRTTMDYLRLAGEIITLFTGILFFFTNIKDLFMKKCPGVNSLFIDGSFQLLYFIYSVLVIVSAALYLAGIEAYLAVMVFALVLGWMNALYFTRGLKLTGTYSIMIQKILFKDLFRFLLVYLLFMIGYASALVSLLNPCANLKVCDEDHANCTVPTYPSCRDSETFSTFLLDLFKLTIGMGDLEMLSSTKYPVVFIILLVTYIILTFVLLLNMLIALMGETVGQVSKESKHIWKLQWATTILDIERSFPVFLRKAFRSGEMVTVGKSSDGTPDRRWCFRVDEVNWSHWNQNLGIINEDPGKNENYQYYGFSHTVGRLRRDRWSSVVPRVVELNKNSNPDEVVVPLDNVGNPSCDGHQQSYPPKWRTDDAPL
# T2 sequence (Q9HBA0 whole entry): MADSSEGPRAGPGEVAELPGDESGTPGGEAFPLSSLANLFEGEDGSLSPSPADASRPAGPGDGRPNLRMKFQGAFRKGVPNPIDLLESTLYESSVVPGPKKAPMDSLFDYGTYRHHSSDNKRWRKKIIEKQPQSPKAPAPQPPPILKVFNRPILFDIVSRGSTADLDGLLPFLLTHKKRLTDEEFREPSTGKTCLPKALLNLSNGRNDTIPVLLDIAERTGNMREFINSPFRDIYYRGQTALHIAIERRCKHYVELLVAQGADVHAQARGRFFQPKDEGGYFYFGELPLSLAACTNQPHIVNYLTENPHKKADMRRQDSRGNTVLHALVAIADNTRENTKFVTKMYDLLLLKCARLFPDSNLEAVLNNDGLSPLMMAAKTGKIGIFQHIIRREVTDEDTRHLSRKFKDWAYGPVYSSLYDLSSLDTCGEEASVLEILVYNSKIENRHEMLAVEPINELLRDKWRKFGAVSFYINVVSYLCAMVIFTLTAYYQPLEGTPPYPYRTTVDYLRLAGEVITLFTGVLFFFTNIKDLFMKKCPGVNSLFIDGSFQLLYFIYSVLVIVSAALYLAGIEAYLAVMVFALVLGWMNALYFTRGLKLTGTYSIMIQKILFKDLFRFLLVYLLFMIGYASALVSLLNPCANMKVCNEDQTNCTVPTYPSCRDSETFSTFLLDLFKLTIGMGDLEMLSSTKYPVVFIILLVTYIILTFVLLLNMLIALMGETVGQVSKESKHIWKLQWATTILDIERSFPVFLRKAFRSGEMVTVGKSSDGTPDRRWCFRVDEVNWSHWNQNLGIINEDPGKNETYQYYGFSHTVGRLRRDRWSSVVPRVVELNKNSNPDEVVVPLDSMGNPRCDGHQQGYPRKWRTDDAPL
EC50 [1] [µM],EC50 [2] [µM],SMILES
0.09 to 5.01,0.1 to 0.794,"CC(C)C[C@H](NC(=O)c1cc2ccccc2s1)C(=O)N1CCN(CCNS(=O)(=O)c2ccc(Cl)cc2Cl)CC1 [Example 1, N-((1S)-1-{[4-(2-{[(2,4-Dichlorophenyl)sulfonyl]amino}ethyl)-1-piperazinyl]carbonyl}-3-methylbutyl)-1-benzothiophene-2-carboxamide]"
0.02 to 0.089,0.01 to 0.0794,"CC(C)C[C@H](NC(=O)c1cc2ccccc2s1)C(=O)N1CCN(C(=O)CNS(=O)(=O)c2ccc(Cl)cc2Cl)CC1 [Example 3, N-((1S)-1-{[4-({[(2,4-Dichlorophenyl)sulfonyl]amino}acetyl)-1-piperazinyl]carbonyl}-3-methylbutyl)-1-benzothiophene-2-carboxamide]"
0.0001 to 0.019,< 0.00794,"CC(C)C[C@H](NC(=O)c1cc2ccccc2s1)C(=O)N1CCN(C(=O)[C@H](C)NS(=O)(=O)c2ccc(Cl)cc2Cl)CC1 [Example 9, N-((1S)-1-{[4-((2S)-2-{[(2,4-dichlorophenyl)sulfonyl]amino}propanoyl)-1-piperazinyl]carbonyl}-3-methylbutyl)-1-benzothiophene-2-carboxamide]"
